Experimental data reported in patent US20200384064A1, “COMPOSITIONS AND METHODS USING HIGH PROTEIN FOR INDUCTION OF AUTOPHAGY” (SOCIETE DES PRODUiTS NESTLE S.A., priority 2017, published 2020).

Test system: LC3 positive punctae in embryo muscles
Test: LC3 positive punctae count in muscles of transgenic LC3-ZsGreen zebrafish embryos
Assay type: in vivo
Method: Autophagy was measured by counting the number of LC3 positive punctae in embryo muscles, normalized by total area. A zebrafish autophagy reporter has been generated by stable expression of the LC3 protein fused to ZsGreen under the control of a skeletal muscle specific promoter, hereafter LC3-ZsGreen. Embryos from outcrossed transgenic zebrafish have been raised at 28° C. under standard laboratory conditions and have been treated at 48 h post-fertilization in 96 well plates (n=24). After 16 hours of treatment embryos were anesthetized with 0.016% tricaine and imaged with ImageXpress confocal system at 20× magnification (Molecular Devices). After acquisition embryos were further treated with NH4Cl 100 mM for 4 h to block LC3 degradation and imaged again. Z stack images were captured for each embryo and maximal projection images were produced. Number of LC3 punctae have been calculated with MetaXpress software (Moleculare Devices) and normalized by fish area.

For `CC(C)[C@H](N)C(=O)O` [Valine, valine], the “Number of LC3 positive punctae in embryo muscles, normalized by total area” value (500 μM in fish water, 16 hours of treatment from 48 h post-fertilization) was “induced an increase of LC3 positive punctae” and the “Autophagic flux (LC3 punctae in presence of the lysosomal inhibitor NH4Cl)” value (500 μM, then NH4Cl 100 mM for 4 h) was “increase of autophagic flux”.
